The values below come from BindingDB's records for doi:10.1016/s0960-894x(01)00209-8 (Institut Für Biochemie Der Technischen …, 2001).

For orientation: Ki means the dissociation constant of the complex between target and ligand, obtained from inhibition or displacement. The low end stands for tighter binding, the high end for weaker binding.

In the assay the target is Beta-glucosidase (Agrobacterium sp.) (UniProt P12614). The assay can be described thus: Inhibitory activity against Agrobacterium sp. Beta-glucosidase employing fluorescence spectrometric method.
Sequence of Beta-glucosidase (Agrobacterium sp.) (P12614 whole entry, looked up): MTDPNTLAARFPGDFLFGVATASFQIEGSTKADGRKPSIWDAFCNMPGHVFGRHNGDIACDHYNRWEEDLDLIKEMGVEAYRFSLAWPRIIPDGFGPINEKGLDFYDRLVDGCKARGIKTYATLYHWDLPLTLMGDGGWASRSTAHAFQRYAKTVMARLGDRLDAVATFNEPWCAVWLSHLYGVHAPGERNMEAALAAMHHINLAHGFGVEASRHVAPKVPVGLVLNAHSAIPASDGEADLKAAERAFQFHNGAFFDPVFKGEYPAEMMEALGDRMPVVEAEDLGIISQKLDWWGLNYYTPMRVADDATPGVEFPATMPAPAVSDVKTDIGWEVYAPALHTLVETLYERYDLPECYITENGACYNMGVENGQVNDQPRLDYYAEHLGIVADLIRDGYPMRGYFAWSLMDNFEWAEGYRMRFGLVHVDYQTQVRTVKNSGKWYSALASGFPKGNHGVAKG

For the molecule `CN(C)c1cccc2c(S(=O)(=O)NC[C@H]3N[C@H](CO)[C@H](O)[C@@H]3O)cccc12` [5-Dimethylamino-naphthalene-1-sulfonic acid ((3S,4S,5R)-3,4-dihydroxy-5-hydroxymethyl-pyrrolidin-2-ylmethyl)-amide], the Ki amounted to 2.4 nM.
With `CN(C)c1cccc2c(S(=O)(=O)NCCCCCC(=O)NC[C@H]3N[C@H](CO)[C@H](O)[C@@H]3O)cccc12` [6-(5-Dimethylamino-naphthalene-1-sulfonylamino)-hexanoic acid ((3S,4S,5R)-3,4-dihydroxy-5-hydroxymethyl-pyrrolidin-2-ylmethyl)-amide] the figure was 2.1 nM.
